The supplement of paper PMC10307832

Experiments:
Assay in all cases: relative viability (nuclei count vs DMSO), 5 days (fraction); higher = more cells survive
ALW-II-49-7 + Crizotinib = compound: Cc1ccc(C(=O)Nc2cccc(C(F)(F)F)c2)cc1Nc1cncc(C(N)=O)c1 [ALW-II-49-7] + C[C@@H](Oc1cc(-c2cnn(C3CCNCC3)c2)cnc1N)c1c(Cl)ccc(F)c1Cl [Crizotinib] (partner 1 µM)
In short: (§1)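 After 5 days of treatment, lung cancer cells in 1536-well plates were fixed and stained in a single step (final 0.05% Triton X-100, 1% formaldehyde, 1 ug/ml Hoechst) and their nuclei counted on 4× images. Treatment had been applied by pin tool the day after seeding as one drug alone or as a fixed anchor-drug dose with five library-drug doses (not always all listed) in √10 steps. Relative viability is the nuclei count of treated wells divided by that of vehicle wells, and values are medians of duplicate plates.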

Dasatinib + Luminespib = compound: Cc1nc(Nc2ncc(C(=O)Nc3c(C)cccc3Cl)s2)cc(N2CCN(CCO)CC2)n1 [Dasatinib] + CCNC(=O)c1noc(-c2cc(C(C)C)c(O)cc2O)c1-c1ccc(CN2CCOCC2)cc1 [Luminespib] (partner 0.01 µM)
In short: as §1

Dasatinib + Alpelisib = compound: Cc1nc(Nc2ncc(C(=O)Nc3c(C)cccc3Cl)s2)cc(N2CCN(CCO)CC2)n1 [Dasatinib] + Cc1nc(NC(=O)N2CCC[C@H]2C(N)=O)sc1-c1ccnc(C(C)(C)C(F)(F)F)c1 [Alpelisib] (partner 2 µM)
In short: as §1

Dasatinib + Phenformin = compound: Cc1nc(Nc2ncc(C(=O)Nc3c(C)cccc3Cl)s2)cc(N2CCN(CCO)CC2)n1 [Dasatinib] + N=C(N)NC(=N)NCCc1ccccc1 [Phenformin] (partner 250 µM)
In short: as §1

| Cell Line | relative viability (ALW-II-49-7 + Crizotinib; first compound 0.253 µM) | relative viability (ALW-II-49-7 + Crizotinib; first compound 0.8 µM) | relative viability (ALW-II-49-7 + Crizotinib; first compound 8 µM) | relative viability (Dasatinib + Luminespib; first compound 0.005 µM) | relative viability (Dasatinib + Luminespib; first compound 0.01581 µM) | relative viability (Dasatinib + Luminespib; first compound 0.05 µM) | relative viability (Dasatinib + Luminespib; first compound 0.1581 µM) | relative viability (Dasatinib + Luminespib; first compound 0.5 µM) | relative viability (Dasatinib + Alpelisib; first compound 0.005 µM) | relative viability (Dasatinib + Alpelisib; first compound 0.01581 µM) | relative viability (Dasatinib + Alpelisib; first compound 0.05 µM) | relative viability (Dasatinib + Alpelisib; first compound 0.1581 µM) | relative viability (Dasatinib + Alpelisib; first compound 0.5 µM) | relative viability (Dasatinib + Phenformin; first compound 0.005 µM) | relative viability (Dasatinib + Phenformin; first compound 0.01581 µM) | relative viability (Dasatinib + Phenformin; first compound 0.05 µM) | relative viability (Dasatinib + Phenformin; first compound 0.1581 µM) | relative viability (Dasatinib + Phenformin; first compound 0.5 µM) | relative viability (ALW-II-49-7 + Crizotinib; first compound 0.08 µM) | relative viability (ALW-II-49-7 + Crizotinib; first compound 2.53 µM) |
| --- | --- | --- | --- | --- | --- | --- | --- | --- | --- | --- | --- | --- | --- | --- | --- | --- | --- | --- | --- | --- |
| NCI-H661 | 1 | 0.922 | 1.04 | 0.99 | 1.02 | 1 | 0.844 | 0.657 | 0.538 | 0.584 | 0.424 | 0.271 | 0.254 | 0.266 | 0.222 | 0.249 | 0.226 | 0.243 | – | – |
| NCI-H727 | 0.874 | 0.847 | 0.885 | 0.255 | 0.425 | 0.334 | 0.237 | 0.244 | 0.453 | 0.375 | 0.397 | 0.219 | 0.234 | 0.399 | 0.461 | 0.375 | 0.262 | 0.235 | 0.739 | 0.804 |
| NCI-H838 | 0.871 | 0.854 | 1 | 0.265 | 0.24 | 0.196 | 0.189 | 0.158 | 0.82 | 0.678 | 0.585 | 0.308 | 0.233 | 0.481 | 0.387 | 0.302 | 0.204 | 0.176 | 0.851 | 0.788 |
| NCI-H1355 | 1.03 | 1.11 | 0.935 | 0.766 | 0.561 | 0.569 | 0.458 | 0.435 | 0.674 | 0.621 | 0.652 | 0.53 | 0.297 | 0.435 | 0.391 | 0.432 | 0.352 | 0.325 | 1 | 0.928 |
| NCI-H1437 | 0.865 | – | 0.896 | 1.11 | 1.12 | 1.16 | 1.08 | 0.665 | 1.03 | 0.893 | 1.03 | 0.735 | 0.513 | 0.322 | 0.207 | 0.261 | 0.222 | 0.148 | 0.897 | 0.869 |
| NCI-H1563 | 0.842 | 0.858 | 0.867 | 0.546 | 0.466 | 0.495 | 0.423 | 0.405 | 0.742 | 0.615 | 0.662 | 0.608 | 0.604 | 0.67 | 0.573 | 0.595 | 0.636 | 0.517 | 0.927 | 0.774 |
| NCI-H1651 | 0.767 | 0.823 | 0.835 | 0.742 | 0.723 | 0.868 | 0.677 | 0.63 | 0.899 | 0.853 | 0.66 | 0.544 | 0.619 | 0.355 | 0.285 | 0.308 | 0.35 | 0.241 | 0.947 | 0.862 |
| NCI-H1666 | 0.964 | 0.909 | 0.965 | 0.992 | 1.05 | 1.06 | 0.88 | 0.459 | 0.964 | 0.855 | 0.844 | 0.563 | 0.31 | 0.517 | 0.26 | 0.548 | 0.498 | 0.451 | 0.948 | 1.06 |
